# Results: patent US12338464B2, “Clonal strains of attenuated vaccinia viruses and methods of use thereof” (priority 2011, dated 2025)
# Experiments:
# [1] = A549 xenograft: average body weight; settings: 2.5 μM ST-246
# [2] = test system: A549 human lung carcinoma xenografts; test: A549 xenograft: tumor volume; assay type: in vivo, mouse; settings: 2.5 μM ST-246 in addition to LIVP 5.1.1 or GLV-1h68
# [3] = test system: A549 human lung carcinoma cells; assay type: cell-based; settings: 5 μM ST-246
compound,measurement,setting,value
O=C(NN1C(=O)[C@@H]2[C@@H]3C=C[C@@H]([C@H]4C[C@@H]34)[C@@H]2C1=O)c1ccc(C(F)(F)F)cc1 [ST-246],effect of ST-246 on toxicity of virus,[1],reduced toxicity
same,effect of ST-246 on tumor reduction by virus,[2],decreased the ability of each virus to reduce tumor size
same,effect of ST-246 on eradication of A549 cells by LIVP 5.1.1 and GLV-1h68,[3],reduced the eradication of A549 cells
